According to PMC12169608, “Peptidomimetic Phenoxymethyl Ketone Warheads as Potent Dual-Mode Inhibitors against SARS-CoV‑2 M^pro and Cathepsin” (Journal of Medicinal Chemistry, 2025):
In brackets after ≈: the same amount, converted by molar mass. Read-outs that look alike come from different tables or passages of the source.

Experiments:
[1] = target: mouse cathepsin L (mCTSL) (Mus musculus, UniProt P06797); assay: mCTSL biochemical assay
[2] = test system: luciferase-expressing VSV (ΔG) pseudotyped with Spike from SARS-CoV-2; assay: microbe, parasite or virus in culture; format: cell-based; settings: Vesicular stomatitis virus, Vero C1008, read-out: Entry reporter assay pEC50 (converted)
[3] = target: T1, human cathepsin L (hCTSL) (Homo sapiens, UniProt P07711); assay: hCTSL biochemical assay; settings: for hCTSL inhibition, IC50 range in words: biochemical assay
T1 construct: purchased R&D Systems

in vitro [4] = settings: African green monkey
SARS-CoV-2 M^pro = SARS-CoV-2 M^pro (Severe acute respiratory syndrome coronavirus 2, UniProt P0DTD1); assay: biochemical; format: biochemical; settings: for M^pro inhibition, IC50 range in words: biochemical assay; for IC50: read-out: M^pro biochemical assay pIC50 (converted)
SARS-CoV-2 = assay: microbe, parasite or virus in culture; format: cell-based; settings: for EC50: Severe acute respiratory syndrome coronavirus 2, Vero C1008, read-out: SARS-CoV-2 CPE reduction assay pEC50 (converted)
[5] = target: human cathepsin B (hCTSB) (Homo sapiens, UniProt P07858); assay: hCTSB biochemical assay
[6] = 3 h, 2 µM
in vitro [7] = settings: mouse, hepatocytes; for hepatocyte CLint at 2 h, 2 µM: CLint (mouse hepatocytes)
in vitro [8] = settings: mouse, plasma, mouse plasma protein binding
physchem [9] = settings: pH 7.4
[10] = target: mouse cathepsin B (mCTSB) (Mus musculus, UniProt P10605); assay: mCTSB biochemical assay; settings: read-out: pIC50 (mouse CTSB) (converted)
[11] = microsomes, 10 µM, pH 7.4
physchem [12] = settings: pH 7.4; remark: listed apart in the source
[13] = Mouse hepatocyte stability; settings: mouse, cryopreserved hepatocytes
[14] = read-out: pIC50 (mouse CTSL) (converted)

T1 sequence (P07711 114-333): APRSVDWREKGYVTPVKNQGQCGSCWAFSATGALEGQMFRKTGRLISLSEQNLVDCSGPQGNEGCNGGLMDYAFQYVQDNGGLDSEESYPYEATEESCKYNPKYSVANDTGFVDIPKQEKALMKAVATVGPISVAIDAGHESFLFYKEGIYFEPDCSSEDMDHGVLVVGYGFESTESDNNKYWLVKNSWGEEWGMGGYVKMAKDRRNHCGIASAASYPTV
Chain of mouse cathepsin L (mCTSL) (P06797 114-334): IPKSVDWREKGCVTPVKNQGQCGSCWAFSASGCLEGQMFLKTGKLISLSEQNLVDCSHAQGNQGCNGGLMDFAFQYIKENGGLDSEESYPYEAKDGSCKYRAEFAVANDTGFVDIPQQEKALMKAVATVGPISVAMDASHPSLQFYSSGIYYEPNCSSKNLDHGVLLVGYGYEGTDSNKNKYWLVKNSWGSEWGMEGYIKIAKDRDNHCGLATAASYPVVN
Chain of mouse cathepsin B (mCTSB) (P10605 80-339): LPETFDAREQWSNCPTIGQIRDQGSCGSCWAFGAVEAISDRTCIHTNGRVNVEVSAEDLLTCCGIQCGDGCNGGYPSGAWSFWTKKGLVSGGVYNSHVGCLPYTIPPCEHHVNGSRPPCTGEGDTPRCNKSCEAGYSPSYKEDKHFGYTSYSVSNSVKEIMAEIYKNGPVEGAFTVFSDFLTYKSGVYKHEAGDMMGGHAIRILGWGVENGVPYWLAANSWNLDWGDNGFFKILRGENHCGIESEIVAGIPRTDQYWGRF

| Structure (SMILES) | EC50 [2] | IC50 [1, 14] | hCTSL biochemical assay pIC50 [3] | CC50 (in vitro [4]) | IC50 (SARS-CoV-2 M^pro) | EC50 (SARS-CoV-2) | hCTSB biochemical assay pIC50 [5] | mouse plasma protein binding, fraction bound (Fb) [6] | hepatocyte CLint at 2 h, 2 µM (in vitro [7]) | fraction unbound at 3 h, 2 µM (in vitro [8]; fraction bound (Fb)) | fraction unbound at 3 h, 2 µM (in vitro [8]; fraction unbound (Fu)) | logD at 1 h (physchem [9]) | solubility kinetic at 24 h (physchem [12]) | other results |
| --- | --- | --- | --- | --- | --- | --- | --- | --- | --- | --- | --- | --- | --- | --- |
| CC(C)(C)[C@H](NC(=O)C(F)(F)F)C(=O)N1C[C@H]2[C@@H]([C@H]1C(=O)N[C@H](C#N)C[C@@H]1CCNC1=O)C2(C)C [Nirmatrelvir, reference compound] |  |  |  |  |  |  |  |  |  |  |  |  |  | IC50 [1]: > 50100 nM |
| COc1cccc2[nH]c(C(=O)N[C@H](Cc3cccc(F)c3)C(=O)N[C@@H](C[C@@H]3CCNC3=O)C(=O)COc3c(F)c(F)c(CO)c(F)c3F)cc12 [compound 2, N-((R)-3-(3-Fluorophenyl)-1-oxo-1-(((S)-3-oxo-1-((S)-2-oxopyrrolidin-3-yl)-4-(2,3,5,6-tetrafluoro-4-(hydroxymethyl)phenoxy)butan-2-yl)amino)propan-2-yl)-4-methoxy-1H-indole-2-carboxamide] | > 50100 nM | 13500 nM | 4.67 | > 74100 nM | 4270 nM | 21900 nM | 5.14 |  |  |  |  |  |  | hCTSL inhibition, IC50 range in words [3]: only micromolar inhibition; M^pro inhibition, IC50 range in words (SARS-CoV-2 M^pro): only micromolar inhibition; fold less active than 1 in the SARS-CoV-2 CPE reduction assay (SARS-CoV-2): ~169 fold |
| CCCCCCCC(=O)N[C@@H](Cc1cccc(F)c1)C(=O)N[C@@H](C[C@@H]1CCNC1=O)C(=O)COc1c(F)c(F)c(CO)c(F)c1F [compound 3, N-((S)-3-(3-Fluorophenyl)-1-oxo-1-(((S)-3-oxo-1-((S)-2-oxopyrrolidin-3-yl)-4-(2,3,5,6-tetrafluoro-4-(hydroxymethyl)phenoxy)butan-2-yl)amino)propan-2-yl)octanamide] |  | 75.9 nM | 7.39 | > 501 nM | 11.5 nM | 70.8 nM | 7.92 | 99.59% | 206 µL/min/1e6 cells | 0.0041 | 0.0041 | 2.23 |  |  |
| CCCCCCCCCCCCCCCC(=O)N[C@@H](Cc1cccc(F)c1)C(=O)N[C@@H](C[C@@H]1CCNC1=O)C(=O)COc1c(F)c(F)c(CO)c(F)c1F [compound 4, N-((S)-3-(3-Fluorophenyl)-1-oxo-1-(((S)-3-oxo-1-((S)-2-oxopyrrolidin-3-yl)-4-(2,3,5,6-tetrafluoro-4-(hydroxymethyl)phenoxy)butan-2-yl)amino)propan-2-yl)palmitamide] | 5620 nM | 10500 nM | < 4.30 | > 25100 nM | 3800 nM | 2240 nM | 5.11 |  | 9.31 µL/min/1e6 cells |  |  |  |  | hCTSL inhibition, IC50 range in words [3]: only micromolar inhibition; M^pro inhibition, IC50 range in words (SARS-CoV-2 M^pro): only micromolar inhibition; logD (physchem [9]): > 3.5 |
| O=C(N[C@@H](Cc1c[nH]c2ccccc12)C(=O)N[C@@H](C[C@@H]1CCNC1=O)C(=O)COc1c(F)c(F)c(CO)c(F)c1F)c1cc2ccccc2[nH]1 [compound 5, N-((S)-3-(1H-Indol-3-yl)-1-oxo-1-(((S)-3-oxo-1-((S)-2-oxopyrrolidin-3-yl)-4-(2,3,5,6-tetrafluoro-4-(hydroxymethyl)phenoxy)butan-2-yl)amino)propan-2-yl)-1H-indole-2-carboxamide] | 5750 nM | 224 nM | 7.64 | > 10000 nM | 41.7 nM | 1170 nM | 6.54 | 98.79% | 182 µL/min/1e6 cells | 0.0121 | 0.0121 | 1.5 |  | IC50 [10]: 12.3 nM |
| COc1cccc2[nH]c(C(=O)N[C@@H](Cc3cccc(F)c3)C(=O)N[C@@H](C[C@@H]3CC(=O)NC3=O)C(=O)COc3c(F)c(F)c(CO)c(F)c3F)cc12 [compound 6, N-((S)-1-(((S)-1-((R)-2,5-Dioxopyrrolidin-3-yl)-3-oxo-4-(2,3,5,6-tetrafluoro-4-(hydroxymethyl)phenoxy)butan-2-yl)amino)-3-(3-fluorophenyl)-1-oxopropan-2-yl)-4-methoxy-1H-indole-2-carboxamide] |  | 97.7 nM | 7.89 | > 25100 nM | 6.03 nM | 1910 nM | 6.55 |  | 156 µL/min/1e6 cells |  |  | 3.08 | 20.9 µM (≈ 15 µg/mL) | Peak area (%) by LCMS, mouse liver microsomal stability assay of 1 ([11]; 0 h): 0%; Peak area (%) by LCMS, mouse liver microsomal stability assay of 1 ([11]; 5 min): 2.5%; Peak area (%) by LCMS, mouse liver microsomal stability assay of 1 ([11]; 0.25 h): 10.2%; Peak area (%) by LCMS, mouse liver microsomal stability assay of 1 ([11]; 0.5 h): 19.2%; Peak area (%) by LCMS, mouse liver microsomal stability assay of 1 ([11]; 0.75 h): 23.2%; Peak area (%) by LCMS, mouse liver microsomal stability assay of 1 ([11]; 1 h): 24.9% |
| COc1cccc2[nH]c(C(=O)N[C@@H](Cc3cccc(F)c3)C(=O)N[C@@H](C[C@@H]3CC(=O)NC3=O)C(=O)COc3c(F)c(F)c(C(C)O)c(F)c3F)cc12 (stereo partly drawn) [compound 9, N-((2S)-1-(((2S)-1-((R)-2,5-Dioxopyrrolidin-3-yl)-3-oxo-4-(2,3,5,6-tetrafluoro-4-(1-hydroxyethyl)phenoxy)butan-2-yl)amino)-3-(3-fluorophenyl)-1-oxopropan-2-yl)-4-methoxy-1H-indole-2-carboxamide] |  | 158 nM | 7.65 | > 10000 nM | 5.5 nM | 1200 nM | 6.09 |  | 134 µL/min/1e6 cells |  |  | 2.6 | 6.33 µM (≈ 4.62 µg/mL) |  |
| COc1cccc2[nH]c(C(=O)N[C@@H](Cc3cccc(F)c3)C(=O)N[C@@H](C[C@@H]3CC(=O)NC3=O)C(=O)COc3c(F)c(F)c(C(C)(C)O)c(F)c3F)cc12 [compound 11] | 8910 nM | 316 nM | 7.95 | > 5010 nM | 6.76 nM | 759 nM | 5.88 |  | 124 µL/min/1e6 cells |  |  | 2.03 | 0.88 µM (≈ 0.655 µg/mL) | fold less active than 1 in the SARS-CoV-2 CPE reduction assay (SARS-CoV-2): ~6 fold |
| COc1cccc2[nH]c(C(=O)N[C@@H](Cc3cccc(F)c3)C(=O)N[C@@H](CCn3cn[nH]c3=O)C(=O)COc3c(F)c(F)c(C(C)(C)O)c(F)c3F)cc12 [compound 13, N-((S)-3-(3-Fluorophenyl)-1-oxo-1-(((S)-2-oxo-5-(5-oxo-1,5-dihydro-4H-1,2,4-triazol-4-yl)-1-(2,3,5,6-tetrafluoro-4-(2-hydroxypropan-2-yl)phenoxy)pentan-3-yl)amino)propan-2-yl)-4-methoxy-1H-indole-2-carboxamide] |  | 23.4 nM | 8.71 | > 10000 nM | 295 nM | 1660 nM | 6.68 |  | 78.8 µL/min/1e6 cells |  |  | 2.7 | 6.78 µM (≈ 5.05 µg/mL) | half-life at 1 µM [13]: 22 min; IC50 [10]: < 6.92 nM; hepatocyte CLint at 1 µM (in vitro [7]; CLint (mouse hepatocytes + ritonavir 4:1)): 49.3 µL/min/1e6 cells; fraction unbound at 3 h, 800 µM (in vitro [8]; fraction bound (Fb)): 0.0031; fraction unbound at 3 h, 800 µM (in vitro [8]; fraction unbound (Fu)): 0.0028 |
| COc1cccc2[nH]c(C(=O)N[C@@H](Cc3cccc(F)c3)C(=O)N[C@@H](C[C@@H]3CCNC3=O)C(=O)COc3c(F)c(F)cc(F)c3F)cc12 [compound 15, reference compound] |  | 603 nM | 7.39 | > 1260 nM | 5.89 nM | 39.8 nM | 5.46 | 99.57% | 240 µL/min/1e6 cells | 0.0043 | 0.0043 | 2.99 | 1.4 µM (≈ 0.942 µg/mL) | selectivity for M^pro over hCTSL (SARS-CoV-2 M^pro; biochemical assays): ~7 fold |
| COc1cccc2[nH]c(C(=O)N[C@@H](Cc3cccc(F)c3)C(=O)N[C@@H](C[C@@H]3CCNC3=O)C(=O)COc3c(F)c(F)c(F)c(F)c3F)cc12 [compound 16, reference compound] | 676 nM | 550 nM | 6.98 | > 251 nM | 6.76 nM | 39.8 nM | 5.82 | 99.33% | 154 µL/min/1e6 cells | 0.0067 | 0.0067 | 2.95 | 4.09 µM (≈ 2.82 µg/mL) | selectivity for M^pro over hCTSL (SARS-CoV-2 M^pro): ~16 fold |
